Consider five compounds from ChEMBL document CHEMBL1151529, “Conformationally constrained analogues of DAG.7. Interaction of a medium-size -lactone with protein kinase C (PK-C)_” (Bioorg Med Chem Lett, 1994).

Experiment [1] is described as follows: Displacement of [3H]phorbol-12,13-dibutyrate from mouse brain protein kinase C. For orientation: In a radioligand displacement assay an active substance lowers the binding of a labelled ligand.
Experiment [2] concerns the target Protein kinase C alpha type (Rattus norvegicus, UniProt P05696). Nature of the experiment: Displacement of [3H]phorbol-12,13-dibutyrate from rat brain protein kinase C alpha.

Structures are written as SMILES.

With `CCCCCCCCCCCCCC(=O)O[C@H]1CC(=O)O[C@@H]1CO`, the Ki in experiment [1] amounted to 5.3 µM.

For the compound `CCCCCCCCCCCCCC(=O)O[C@H]1CCC(=O)O[C@@H]1CO`, the Ki in experiment [1] amounted to 30.5 µM.

In experiment [2], `CCCCCCCCCCCCCC(=O)O[C@@H]1CCCC(=O)O[C@H]1CO` showed a Ki of 41 µM. This counts as double-digit micromolar.

`CCCCCCCCCCCCCC(=O)O[C@@H]1CC(=O)O[C@H]1CO` displayed an inhibitory constant (Ki) in experiment [1] of 2.5 µM.

As to `CCCCCCCCCCCCCC(=O)O[C@@H]1CCC(=O)O[C@H]1CO`, affinity in experiment [1] was put at a Ki of 2.8 µM. The Ki values of the last two compounds are within 1.5-fold of each other.

Usually Ki stands for the dissociation constant of the complex between target and ligand, obtained from inhibition or displacement. A higher Ki goes with a looser hold on the target.
